Experimental data published in patent US12344610B2, “APOL1 inhibitors and methods of use” (Maze Therapeutics, Inc., priority 2022, dated 2025).
Like-named read-outs stand apart in the source and are kept apart here.

Legend:
[1] = tested on: Trypanosoma brucei Lister 427 VSG221 with APOL1 G2 recombinant protein; test: APOL1 G2 trypanosome cell rescue assay (Example B5); format: cell-based; settings: geometric mean of at least 2 assay runs, † = single assay run
Outline: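 Luminescent ATP read-out (CellTiter-Glo) of trypanosome viability after 20 h at 37° C. Bloodstream T. brucei Lister 427 VSG221, 250/well in modified HMI-9, were exposed to recombinant mature APOL1 (aa 28-398) from a 2 μg/mL addition, plus compound in 11-point 2-fold series.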

[2] = tested on: HEK293 cells overexpressing APOL1 G2; test: APOL1 G2 HEK293 cell rescue assay (reversal of cell death caused by overexpression of APOL1); format: cell-based; settings: geometric mean of at least 2 assay runs, † = single assay run
Outline: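 Each compound tested in duplicate wells on one plate per run, with values usually the geometric mean across at least two runs on different days, occasionally from one run only. Read-out: concentration giving half-maximal rescue of APOL1 G2 overexpression-induced death of HEK293 cells.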

[3] = Trypanosoma brucei, 20 h, read-out: APOL1 G2 Trypanosome Rescue EC50, Trypanosoma brucei Lister 427 VSG221 with APOL1 G2 recombinant protein, 20 hours, CellTiter-Glo
[4] = Homo sapiens, HEK293, HEK293 overexpressing APOL1 G2
[5] = read-out: APOL1 G2 Trypanosome Rescue EC50, Trypanosoma brucei Lister 427 VSG221 with APOL1 G2 recombinant protein, 20 hours, CellTiter-Glo

Row | Structure (SMILES) | EC50 [2, 4] [nM] | other results
1 | CC(c1ccc(OCCN2CCC3(CC2)C(=O)Nc2ccc(Cl)cc23)cc1)S(C)(=O)=O (single isomer, unassigned) [Compound 39, 5-chloro-1′-(2-{4-[(1S) or (1R)-1-methanesulfonylethyl]phenoxy}ethyl)-1,2-dihydrospiro[indole-3,4′-piperidin]-2-one] | 56.7 | EC50 [1, 3]: 53 nM
2 | O=C1CCc2cc(OCCN3CCC4(CC3)C(=O)Nc3ccc(Cl)cc34)cnc2N1[C@H]1C[C@@H](CO)C1 (single isomer, unassigned) [Compound 319, 5-chloro-1′-[2-({7-oxo-8-[(cis)-3-(hydroxymethyl)cyclobutyl]-5,6,7,8-tetrahydro-1,8-naphthyridin-3-yl}oxy)ethyl]-1,2-dihydrospiro[indole-3,4′-piperidin]-2-one] | 41.9 | EC50 [1, 3]: 27 nM
3 | CC[C@]1(O)C[C@@H](N2C(=O)CCc3cc(OCCN4CCC5(CC4)C(=O)Nc4ccc(Cl)cc45)cnc32)C1 (single isomer, unassigned) [Compound 321, 5-chloro-1′-[2-({7-oxo-8-[(cis)-3-ethyl-3-hydroxycyclobutyl]-5,6,7,8-tetrahydro-1,8-naphthyridin-3-yl}oxy)ethyl]-1,2-dihydrospiro[indole-3,4′-piperidin]-2-one] | 24.1 | EC50 [1, 3]: 14.3 nM
4 | CC1(O)CC(CN2C(=O)CCc3cc(OCCN4CCC5(CC4)C(=O)Nc4ccc(Cl)cc45)cnc32)C1 (single isomer, unassigned) [Compound 322, 5-chloro-1′-{2-[(7-oxo-8-{[(trans) or (cis)-3-hydroxy-3-methylcyclobutyl]methyl}-5,6,7,8-tetrahydro-1,8-naphthyridin-3-yl)oxy]ethyl}-1,2-dihydrospiro[indole-3,4′-piperidin]-2-one] | – | EC50 [1, 5]: 11.7 nM; EC50 ([2]; HEK293 overexpressing APOL1 G2): 18.5 nM
5 | C[C@]1(O)C[C@@H](n2ncc3cc(OCCN4CCC5(CC4)C(=O)Nc4ccc(Cl)cc45)cnc32)C1 (single isomer, unassigned) [Compound 357, 5-chloro-1′-[2-({1-[(cis)-3-hydroxy-3-methylcyclobutyl]-1H-pyrazolo[3,4-b]pyridin-5-yl}oxy)ethyl]-1,2-dihydrospiro[indole-3,4′-piperidin]-2-one] | 22.3 | EC50 [1, 3]: 28.1 nM
6 | CC1(O)CC(c2ncc(OCCN3CCC4(CC3)C(=O)Nc3ccc(Cl)cc34)cn2)C1 (single isomer, unassigned) [Compound 393, 5-chloro-1′-[2-({2-[(cis) or (trans)-3-hydroxy-3-methylcyclobutyl]pyrimidin-5-yl}oxy)ethyl]-1,2-dihydrospiro[indole-3,4′-piperidin]-2-one] | – | EC50 [1, 5]: 120 nM; EC50 ([2]; HEK293 overexpressing APOL1 G2): 80.5 nM
7 | C[C@]1(O)C[C@H](n2ncc3cc(OCCN4CCC5(CC4)C(=O)Nc4ccc(Cl)cc45)cnc32)C1 (single isomer, unassigned) [Compound 408, 5-chloro-1′-[2-({1-[(trans)-3-hydroxy-3-methylcyclobutyl]-1H-pyrazolo[3,4-b]pyridin-5-yl}oxy)ethyl]-1,2-dihydrospiro[indole-3,4′-piperidin]-2-one] | 23.1 | EC50 [1, 3]: 43.6 nM
8 | C[C@]1(O)C[C@@H](N2C(=O)CCc3cc(OCCN4CCC5(CC4)C(=O)Nc4ccc(OC(F)F)cc45)cnc32)C1 [Cmpd 325, 5-(difluoromethoxy)-1′-[2-({7-oxo-8-[(cis)-3-hydroxy-3-methylcyclobutyl]-5,6,7,8-tetrahydro-1,8-naphthyridin-3-yl}oxy)ethyl]-1,2-dihydrospiro[indole-3,4′-piperidin]-2-one] | 86.4 | EC50 [1, 3]: 77.5 nM
9 | CC(C)(CO)c1ncc(OCCN2CCC3(CC2)C(=O)Nc2ccc(Cl)cc23)cn1 [Compound 334, 5-chloro-1′-(2-{[2-(1-hydroxy-2-methylpropan-2-yl)pyrimidin-5-yl]oxy}ethyl)-1,2-dihydrospiro[indole-3,4′-piperidin]-2-one] | 110 | –
10 | C[C@]1(O)C[C@@H](n2ccc3cc(OCCN4CCC5(CC4)C(=O)Nc4ccc(C(F)F)cc45)cnc32)C1 [Compound 350, 5-(difluoromethyl)-1′-[2-({1-[(cis)-3-hydroxy-3-methylcyclobutyl]-1H-pyrrolo[2,3-b]pyridin-5-yl}oxy)ethyl]-1,2-dihydrospiro[indole-3,4′-piperidin]-2-one] | 18.8 | –
11 | C[C@]1(O)C[C@@H](n2c(=O)oc3cc(OCCN4CCC5(CC4)C(=O)Nc4ccc(Cl)cc45)cnc32)C1 [Compound 394, 5-chloro-1′-[2-({2-oxo-3-[(cis)-3-hydroxy-3-methylcyclobutyl]-2H,3H-[1,3]oxazolo[4,5-b]pyridin-6-yl}oxy)ethyl]-1,2-dihydrospiro[indole-3,4′-piperidin]-2-one] | 24 | –
12 | O=C1Nc2ccc(Cl)cc2C12CCN(CCOc1cnc(N3CC4(CC(O)C4)C3)nc1)CC2 [Compound 396, 5-chloro-1′-{2-[(2-{6-hydroxy-2-azaspiro[3.3]heptan-2-yl}pyrimidin-5-yl)oxy]ethyl}-1,2-dihydrospiro[indole-3,4′-piperidin]-2-one] | 40.5 | –
13 | CC(CO)(c1ncc(OCCN2CCC3(CC2)C(=O)Nc2ccc(Cl)cc23)cc1C(F)(F)F)S(C)(=O)=O (stereo not shown) [Compound 401, 5-chloro-1′-(2-{[6-(1-hydroxy-2-methanesulfonylpropan-2-yl)-5-(trifluoromethyl)pyridin-3-yl]oxy}ethyl)-1,2-dihydrospiro[indole-3,4′-piperidin]-2-one] | 36.7 | –
14 | CC(C)(O)c1ncc(OCCN2CCC3(CC2)C(=O)Nc2ccc(C#N)cc23)cc1C(F)(F)F [Compound 411, 1′-(2-{[6-(2-hydroxypropan-2-yl)-5-(trifluoromethyl)pyridin-3-yl]oxy}ethyl)-2-oxo-1,2-dihydrospiro[indole-3,4′-piperidine]-5-carbonitrile] | 22.6 | –
15 | C[C@]1(O)C[C@@H](n2cnc3cc(OCCN4CCC5(CC4)C(=O)Nc4ccc(C#N)cc45)cc(C(F)(F)F)c32)C1 [Compound 433, 1′-(2-((1-((cis)-3-hydroxy-3-methylcyclobutyl)-7-(trifluoromethyl)-1H-benzo[d]imidazol-5-yl)oxy)ethyl)-2-oxospiro[indoline-3,4′-piperidine]-5-carbonitrile] | 14.8 | –
16 | C[C@]1(O)C[C@@H](n2nnc3cc(OCCN4CCC5(CC4)C(=O)Nc4ccc(Cl)cc45)cc(C(F)(F)F)c32)C1 [Compound 434, 5-chloro-1′-[2-({1-[(cis)-3-hydroxy-3-methylcyclobutyl]-7-(trifluoromethyl)-1H-1,2,3-benzotriazol-5-yl}oxy)ethyl]-1,2-dihydrospiro[indole-3,4′-piperidin]-2-one] | 11.2 | –
17 | Cc1nc2cc(OCCN3CCC4(CC3)C(=O)Nc3ccc(Cl)cc34)cc(C(F)(F)F)c2n1[C@H]1C[C@@](C)(O)C1 [Compound 442, 5-chloro-1′-[2-({2-methyl-1-[(cis)-3-hydroxy-3-methylcyclobutyl]-7-(trifluoromethyl)-1H-1,3-benzodiazol-5-yl}oxy)ethyl]-1,2-dihydrospiro[indole-3,4′-piperidin]-2-one] | < 3.08 | –
18 | Cc1nc2cc(OCCN3CCC4(CC3)C(=O)Nc3ccc(C#N)cc34)cc(C(F)(F)F)c2n1[C@H]1C[C@@](C)(O)C1 [Compound 443, 1′-[2-({2-methyl-1-[(cis)-3-hydroxy-3-methylcyclobutyl]-7-(trifluoromethyl)-1H-1,3-benzodiazol-5-yl}oxy)ethyl]-2-oxo-1,2-dihydrospiro[indole-3,4′-piperidine]-5-carbonitrile] | 10.2 | –
19 | C[C@]1(O)C[C@@H](n2cnc3cc(OCCN4CCC5(CC4)C(=O)Nc4ccc(C(F)F)cc45)cc(C(F)(F)F)c32)C1 [Compound 450, 5-(difluoromethyl)-1′-[2-({1-[(cis)-3-hydroxy-3-methylcyclobutyl]-7-(trifluoromethyl)-1H-1,3-benzodiazol-5-yl}oxy)ethyl]-1,2-dihydrospiro[indole-3,4′-piperidin]-2-one] | 5.5 | –
20 | C[C@]1(O)C[C@@H](n2cnc3cc(OCCN4CCC5(CC4)C(=O)Nc4c(I)cc(Cl)cc45)cc(C(F)(F)F)c32)C1 [Compound 453, 5-chloro-7-iodo-1′-[2-({1-[(cis)-3-hydroxy-3-methylcyclobutyl]-7-(trifluoromethyl)-1H-1,3-benzodiazol-5-yl}oxy)ethyl]-1,2-dihydrospiro[indole-3,4′-piperidin]-2-one] | 19.1 | –
21 | C[C@]1(O)C[C@@H](n2cnc3cc(OCCN4CCC5(CC4)C(=O)Nc4ccc(Cl)cc45)cc(F)c32)C1 [Compound 454, 5-chloro-1′-(2-((7-fluoro-1-((cis)-3-hydroxy-3-methylcyclobutyl)-1H-benzo[d]imidazol-5-yl)oxy)ethyl)spiro[indoline-3,4′-piperidin]-2-one] | 24.1 | –
22 | C[C@]1(O)C[C@@H](n2ncc3cc(OCCN4CCC5(CC4)C(=O)Nc4ccc(Cl)cc45)cc(C(F)(F)F)c32)C1 [Compound 464, 5-chloro-1′-[2-({1-[(cis)-3-hydroxy-3-methylcyclobutyl]-7-(trifluoromethyl)-1H-indazol-5-yl}oxy)ethyl]-1,2-dihydrospiro[indole-3,4′-piperidin]-2-one] | 5.02 | –
23 | C[C@]1(O)C[C@@H](n2ncc3cc(OCCN4CCC5(CC4)C(=O)Nc4ccc(C#N)cc45)cc(C(F)(F)F)c32)C1 [Compound 465, 2-oxo-1′-[2-({1-[(cis)-3-hydroxy-3-methylcyclobutyl]-7-(trifluoromethyl)-1H-indazol-5-yl}oxy)ethyl]-1,2-dihydrospiro[indole-3,4′-piperidine]-5-carbonitrile] | 8.86 | –
